≈ marks a conversion by molar mass, not a printed value.
Legend:
[1] = system: blood pressure; assay: Blood pressure of genetically hypertensive rats, P.O. 50 mg/kg; assay type: in vivo; details: 50 mg./kg. orally, tested as hydrochloride salts, + increase, - decrease in b.p.; for change in vivo at 50 mg/kg: Rattus norvegicus, po
Protocol: The blood pressure of unanesthetized rats and dogs was measured directly by means of a transducer attached to an intra-arterial cannula and in anesthetized dogs by a mercury manometer attached to a carotid cannula.
The compounds of the instant invention were tested as the hydrochloride salts by the above method in genetically hypertensive rats in doses of 50 mg./kg. orally.

[2] = system: ADP induced platelet aggregation; assay: In vivo/in vitro ADP induced platelet aggregation after I.P. dosing of rabbits; design: species or system rabbit; details: Oryctolagus cuniculus, ip, 1 to 2 hours after dosing, dose for 50% inhibition of aggregation
Protocol: (§1) *In vivo/In vitro testing:
(§2) Before dosing the animals, blood samples are taken. The blood is centrifuged to obtain the blood platelet-rich plasma. Aggregation of this plasma is induced with ADP or collagen. This is the control.
(§3) The animals are then dosed with the compounds to be tested (orally or parenterally). Depending upon the route of administration, 1 to 2 hours are allowed to elapse after dosing. Blood is drawn and the same procedure employed as for the control in untreated animals.
The dose required to produce 50% inhibition of the aggregation is determined by dose response data obtained in this manner.

[3] = system: adenosine diphosphate (ADP) induced platelet aggregation; assay: In vitro inhibition of ADP induced platelet aggregation (aggregometer method of Born, modified); assay type: cell-based; details: Oryctolagus cuniculus; rabbit platelet rich plasma, ADP 0.5 mcg./ml.
Protocol: (§4) The aggregometer method of Born (1), as modified by Mustard et al. (2) was used to assess the in vitro activity of the various compounds as to inhibition of adenosine diphosphate (ADP) and collagen induced platelet aggregation. Platelet rich plasma was separated by centrifugation from citrated (3.8 percent) rabbit blood. ADP in final concentration of 0.5 mcg./ml. or 0.05 ml. of a collagen suspension prepared according to the method described by Evans et al. (3) was used to induce aggregation. The various compounds tested were dissolved in dimethylsulfoxide (DMSO) so that 5 mcl. added to the platelet rich plasma would yield the desired test concentration. Vehicle control trials were done and compared with aggregation induced in platelet rich plasma containing various concentrations of the test compounds. Dose response curves were obtained and Effective Concentration (EC50) values calculated.
(§5) 2. mustard, J. F., Hegardt, B. Rowsell, H. C. and MacMillan, R. L., J. Lab. Clin. Med. 64, 548 (1964).

[4] = system: collagen induced platelet aggregation; assay: In vitro inhibition of collagen induced platelet aggregation (aggregometer method of Born, modified); assay type: cell-based; details: Oryctolagus cuniculus; rabbit platelet rich plasma, 0.05 ml. collagen suspension
Protocol: as §4, §5
3. Evans, G. Marian M. C., Packham, M. A., Nishizawa, E. E., Mustard, J. F. and Murphy, E. A., J. Exp. Med., 128, 877 (1968).

[5] = system: ADP induced platelet aggregation; assay: In vivo/in vitro ADP induced platelet aggregation after P.O. dosing of dogs; design: species or system dog; details: 1 to 2 hours after dosing
Protocol: as §1, §2, §3

Row | Compound | change in vivo at 50 mg/kg [1] [%] | ED50 [2] [mg/kg] | EC50 [3] [µg/mL] | EC50 [4] [µg/mL] | Blood Pressure % Change Rats P.O. 50 mg./kg. [1] | In Vivo/In Vitro Dogs P.O. 5 mg./kg. ADP % Inhibition [5] [%]
1 | O=C1CN2Cc3cc(Br)ccc3N=C2N1 [Compound 6, 7-Bromo-1,2,3,5-tetrahydroimidazo[2,1-b]-quinazolin-2-one] | -8 ± 3 | 5 | 0.4 (≈ 1.5 µM) | 0.2 (≈ 0.752 µM) |  | 
2 | O=C1CN2Cc3cc(Cl)ccc3N=C2N1 [Compound 3] | -4 ± 5 | > 10 | 0.5 (≈ 2.26 µM) | 0.2 (≈ 0.902 µM) |  | 
3 | O=C1CCN2Cc3ccccc3N=C2N1 [Compound 19, 6-[H]-1,2,3,4-Tetrahydropyrimido[2,1-b]-quinazolin-2-one] | -32 ± 4 |  | 25 (≈ 124 µM) | 4 (≈ 19.9 µM) |  | 
4 | Cc1ccc2c(c1)CN1CC(=O)NC1=N2 [Compound 11] |  | > 10 | 2 (≈ 9.94 µM) | 0.3 (≈ 1.49 µM) |  | 
5 | COc1cccc2c1N=C1NC(=O)CCN1C2 [Compound 27] | 1 |  |  |  |  | 
6 | O=C1CN2Cc3c(ccc4ccccc34)N=C2N1 [Compound 39] | -59 |  |  |  |  | 
7 | COc1cccc2c1N=C1NC(=O)CN1C2 [Compound 15] | -16 ± 3 |  |  |  |  | 
8 | Cc1cccc2c1C(C)N1CC(=O)NC1=N2 (stereo not drawn) [Compound 50, 5,6-dimethyl-1,2,3,5-tetrahydroimidazo[2,1-b]quinazolin-2-one] | -49 |  |  |  |  | 
9 | O=C1CCN2Cc3cc(Br)ccc3N=C2N1 [Compound 21, 8-Bromo-6-[H]-1,2,3,4-tetrahydropyrimido[2,1-b]quinazolin-2-one] |  | 9 | 3 (≈ 10.7 µM) | 1.5 (≈ 5.35 µM) | Toxic | 
10 | Cc1ccc2c(c1)C(C)N1CC(=O)NC1=N2 (stereo not drawn) [Compound 51, 5,7-Dimethyl-1,2,3,5-tetrahydroimidazo-[2,1-b]quinazolin-2-one] | -34 |  |  |  |  | 
11 | O=C1CN2Cc3ccccc3N=C2N1 [Compound 1, 1,2,3,5-tetrahydroimidazo [2,1-b]-quinazolin-2-one] | -36 ± 6 | > 72 | 6 (≈ 32.1 µM) | 2 (≈ 10.7 µM) |  | 
12 | COc1ccc2c(c1)CN1CC(=O)NC1=N2 [Compound 14, 7-methoxy-1,2,3,5-tetrahydroimidazo[2,1-b]quinazolin-2-one] | -19 ± 4 | 4 | 1 (≈ 4.6 µM) | 0.2 (≈ 0.921 µM) |  | 17
13 | COc1ccc2c(c1OC)CN1CC(=O)NC1=N2 [Compound 16, 6,7-dimethoxy-1,2,3,5-tetrahydroimidazo[2,1-b]quinazolin-2-one] |  | 0.7 | 0.4 (≈ 1.62 µM) |  |  | 
14 | O=C1CN2Cc3cccc(Cl)c3N=C2N1 [Compound 5] | -10 ± 1 | 6 | 7 (≈ 31.6 µM) | 0.3 (≈ 1.35 µM) |  | 
15 | CC1c2ccccc2N=C2NC(=O)CN21 (stereo not drawn) [Compound 29] | -28 | 35 | 2 (≈ 9.94 µM) | 7 (≈ 34.8 µM) |  | 
16 | Cc1c(Cl)ccc2c1CN1CC(=O)NC1=N2 [Compound 45, 7-Chloro-6-methyl-1,2,3,5-tetrahydroimidazo[2,1-b]quinazolin-2-one] |  |  | 0.09 (≈ 0.382 µM) | 0.012 (≈ 0.0509 µM) |  | 46 ±8
17 | O=C1CN2Cc3ccc(Cl)cc3N=C2N1 [Compound 4] | -14 | 18 | 6 (≈ 27.1 µM) | 1.5 (≈ 6.77 µM) |  | 

Row | Compound | change in vivo at 50 mg/kg [1] [%] | ED50 [2] [mg/kg] | EC50 [3] [µg/mL] | EC50 [4] [µg/mL] | Blood Pressure % Change Rats P.O. 50 mg./kg. [1] | In Vivo/In Vitro Dogs P.O. 5 mg./kg. ADP % Inhibition [5] [%]
18 | O=C1CN2Cc3ccc(F)cc3N=C2N1 [Compound 7] | -27 ± 3 | > 10 | 6 (≈ 29.2 µM) | 2 (≈ 9.75 µM) |  | 
19 | O=C1CCN2Cc3c(Cl)cccc3N=C2N1 [Compound 20] | -12 ± 1 | 8 | 6 (≈ 25.5 µM) | 0.7 (≈ 2.97 µM) |  | 
20 | Cc1cccc2c1CN1CCC(=O)NC1=N2 [Compound 22] | -26 ± 9 | > 10 | 3 (≈ 13.9 µM) | 0.3 (≈ 1.39 µM) |  | 
21 | COc1cccc2c1CN1CC(=O)NC1=N2 [Compound 13, 6-methoxy-1,2,3,5-tetrahydroimidazo-[2,1-b]quinazolin-2-one] | -20 ± 14 | 4 | 0.5 (≈ 2.3 µM) | 0.2 (≈ 0.921 µM) |  | 19
22 | Cc1cccc2c1N=C1NC(=O)CCN1C2 [Compound 24] | -19 |  |  |  |  | 
23 | COc1cc2c(cc1OC)N=C1NC(=O)CCN1C2 [Compound 28] | 7 |  |  | 32 (≈ 122 µM) |  | 
24 | Nc1ccc2c(c1)CN1CC(=O)NC1=N2 [Compound 9, 7-Amino-1,2,3,5-tetrahydroimidazo-[2,1-b]quinazolin-2-one] | -10 ± 14 |  | 50 (≈ 247 µM) | 6 (≈ 29.7 µM) |  | 
25 | Cc1cccc2c1CN1CC(=O)NC1=N2 [Compound 10, 6-methyl-1,2,3,5-tetrahydroimidazo-[2,1-b]quinazolin-2-one] | -37 ± 8 | 0.6 | 0.5 (≈ 2.48 µM) | 0.1 (≈ 0.497 µM) |  | 76
26 | COc1cccc2c1CN1CCC(=O)NC1=N2 [Compound 25] | -5 ± 3 | 8 | 2 (≈ 8.65 µM) | 0.4 (≈ 1.73 µM) |  | 
27 | COc1ccc2c(c1)CN1CCC(=O)NC1=N2 [Compound 26] | -19 ± 6 | > 10 | 6 (≈ 25.9 µM) | 1.5 (≈ 6.49 µM) |  | 
28 | O=C1CN2Cc3c(Cl)cccc3N=C2N1 [Compound 2, 6-chloro-1,2,3,5-tetrahydroimidazo[2,1-b]quinazolin-2-one] | -37 ± 8 | 2 | 1 (≈ 4.51 µM) | 0.02 (≈ 0.0902 µM) |  | 
29 | Cc1cccc2c1N=C1NC(=O)CN1C2 [Compound 12] | -22 ± 10 | > 10 | 4 (≈ 19.9 µM) | 3 (≈ 14.9 µM) |  | 
30 | O=C1CN2Cc3cc4c(cc3N=C2N1)OCO4 [Compound 18] | -25 ± 12 | > 50 | 0.7 (≈ 3.03 µM) | 0.07 (≈ 0.303 µM) |  | 
31 | O=C1CN2Cc3cc([N+](=O)[O-])ccc3N=C2N1 [Compound 8, 7-Nitro-1,2,3,5-tetrahydroimidazo-[2,1-b]quinazolin-2-one] | 5 ± 2 | > 10 | 2 (≈ 8.61 µM) | 0.2 (≈ 0.861 µM) |  | 
32 | Cc1ccc2c(c1)CN1CCC(=O)NC1=N2 [Compound 23] | -7 ± 2 |  | 16 (≈ 74.3 µM) | 2 (≈ 9.29 µM) |  | 
33 | COc1cc2c(cc1OC)N=C1NC(=O)CN1C2 [Compound 17] | 26 | 4 | 5 (≈ 20.2 µM) |  |  | 0
